Test results taken from patent publication US8592456B2 (4SC Discovery GmbH, priority 2011, dated 2013).

tested on: PBMC (T cell proliferation); experiment: T cell proliferation assay, PHA-stimulated human PBMC (BrdU ELISA); format: cell-based; details: PHA-stimulated human PBMC, 48 hours, BrdU; column D; activity classes 1-4; read-out: IC50 (Tcell proliferation)
Procedure: Cell proliferation was analysed using the BrdU based cell proliferation ELISA from Roche (Mannheim, Germany) according to the manufacturer's instructions.
T Cell Proliferation Assay
Peripheral blood mononuclear cells (PBMC) from healthy human donors were isolated by centrifugation over Ficoll-Hypaque (Sigma-Aldrich, Germany) according to manufacturer's instructions. Purified PBMC were washed twice with PBS and resuspended in RPMI1640 culture medium supplemented with 10% dialyzed heat inactivated fetal calf serum, 1.5 mM L-glutamine, 100 U penicillin/ml, and […] (all from PAN Biotech, Aidenbach, Germany). For stimulation, PBMC were seeded at 1×10^5 cells/well, activated with 2 μg/ml phytohaemagglutinin (PHA, Sigma) and incubated with the test compound. After 48 hours proliferation was measured using the BrdU based cell proliferation ELISA from Roche (Mannheim, Germany) according to the manual.

| SMILES | IC50 [µM] |
| --- | --- |
| Cc1nnc(-c2c(-c3c(F)cccc3Cl)noc2-c2cnn(-c3ccccn3)c2C(F)(F)F)s1 [IB-27, 3-(2-chloro-6-fluorophenyl)-4-(5-methyl-1,3,4-thiadiazol-2-yl)-5-(1-(pyridin-2-yl)-5-(trifluoromethyl)-1H-pyrazol-4-yl)isoxazole] | 0.01 to 0.1 |
| Fc1cccc(Cl)c1-c1noc(-c2cnn(-c3cccc(Cl)c3)c2C(F)(F)F)c1-c1ccoc1 [IB-7, 3-(2-chloro-6-fluorophenyl)-5-(1-(3-chlorophenyl)-5-(trifluoromethyl)-1H-pyrazol-4-yl)-4-(furan-3-yl)isoxazole] | < 0.01 |
| COc1csc(-c2c(-c3c(F)cccc3Cl)noc2-c2cnn(-c3cccc(F)c3)c2C(F)(F)F)n1 [Example I-10, 3-(2-chloro-6-fluorophenyl)-5-(1-(3-fluorophenyl)-5-(trifluoromethyl)-1H-pyrazol-4-yl)-4-(4-methoxythiazol-2-yl)isoxazole] | 0.01 to 0.1 |
| Cc1nnc(-c2c(-c3c(F)cccc3Cl)noc2-c2cnn(-c3ccncc3)c2C(F)(F)F)o1 [IB-19, 2-(3-(2-chloro-6-fluorophenyl)-5-(1-(pyridin-4-yl)-5-(trifluoromethyl)-1H-pyrazol-4-yl)isoxazol-4-yl)-5-methyl-1,3,4-oxadiazole] | 0.1 to 1 |

same assay, conditions: human PBMC, 2 μg/ml PHA, 48 hours, BrdU; read-out: D: IC50 (Tcell proliferation)

| SMILES | IC50 [µM] |
| --- | --- |
| COC(=O)c1c(-c2c(F)cccc2Cl)noc1-c1cnn(CC(F)(F)F)c1C(F)(F)F [Example 65, methyl 3-(2-chloro-6-fluorophenyl)-5-(1-(2,2,2-trifluoroethyl)-5-(trifluoromethyl)-1H-pyrazol-4-yl)isoxazole-4-carboxylate] | 0.01 to 0.1 |
| COC(=O)c1c(-c2ccc(Cl)c(Cl)c2)noc1-c1cnn(-c2cccc(F)c2)c1C(F)(F)F [Example 97, methyl 3-(3,4-dichlorophenyl)-5-(1-(3-fluorophenyl)-5-(trifluoromethyl)-1H-pyrazol-4-yl)isoxazole-4-carboxylate] | 1 to 10 |
| CCOC(=O)c1c(-c2c(F)cccc2Cl)noc1-c1cnn(-c2cccc(C#N)c2)c1C(F)(F)F [Example B-32, ethyl 3-(2-chloro-6-fluorophenyl)-5-(1-(3-cyanophenyl)-5-(trifluoromethyl)-1H-pyrazol-4-yl)isoxazole-4-carboxylate] | 0.01 to 0.1 |
| O=C(c1c(-c2c(F)cccc2Cl)noc1-c1cnn(-c2cccc(Cl)c2)c1C(F)(F)F)N1CCOCC1 [Example B-35, (3-(2-chloro-6-fluorophenyl)-5-(1-(3-chlorophenyl)-5-(trifluoromethyl)-1H-pyrazol-4-yl)isoxazol-4-yl)(morpholino)methanone] | 1 to 10 |
| CCOC(=O)c1c(-c2ccncc2F)noc1-c1cnn(-c2ccccc2Cl)c1C(F)(F)F [Example B-13, ethyl 5-(1-(2-chlorophenyl)-5-(trifluoromethyl)-1H-pyrazol-4-yl)-3-(3-fluoropyridin-4-yl)isoxazole-4-carboxylate] | 0.01 to 0.1 |
| CC(C)OC(=O)c1c(-c2c(F)cccc2Cl)noc1-c1cnn(-c2ccccc2F)c1C(F)(F)F [Example 43, i-Propyl 3-(2-chloro-6-fluorophenyl)-5-[1-(2-fluorophenyl)-5-(trifluoromethyl)-1H-pyrazol-4-yl]isoxazole-4-carboxylate] | 0.01 to 0.1 |
| COC(=O)c1c(-c2c(F)cccc2Cl)noc1-c1cnn(-c2nc(-c3ccc(F)cc3)cs2)c1C(F)(F)F [Example 54, methyl 3-(2-chloro-6-fluorophenyl)-5-(1-(4-(4-fluorophenyl)thiazol-2-yl)-5-(trifluoromethyl)-1H-pyrazol-4-yl)isoxazole-4-carboxylate] | 1 to 10 |
| CCOC(=O)c1c(-c2c(Cl)cncc2Cl)noc1-c1cnn(-c2cccnc2)c1C(F)(F)F [Example B-12, ethyl 3-(3,5-dichloropyridin-4-yl)-5-(1-(pyridin-3-yl)-5-(trifluoromethyl)-1H-pyrazol-4-yl)isoxazole-4-carboxylate] | 0.1 to 1 |
| CCOC(=O)c1c(-c2onc(-c3c(F)cccc3Cl)c2C(=O)OC)cnn1-c1cccc(Cl)c1 [Example 10, methyl 3-(2-chloro-6-fluorophenyl)-5-(1-(3-chlorophenyl)-5-(ethoxycarbonyl)-1H-pyrazol-4-yl)isoxazole-4-carboxylate] | 0.01 to 0.1 |
| COC(=O)c1c(-c2c(F)cccc2Cl)noc1-c1cnn(-c2ccccc2F)c1 [Example 89, Methyl 3-(2-chloro-6-fluorophenyl)-5-[1-(2-fluorophenyl)-1H-pyrazol-4-yl]isoxazole-4-carboxylate] | 0.1 to 1 |
| COC(=O)c1c(-c2ccccc2)noc1-c1cnn(-c2ccc(OC(F)(F)F)cc2)c1C(F)(F)F [Example 74, methyl 3-phenyl-5-(1-(4-(trifluoromethoxy)phenyl)-5-(trifluoromethyl)-1H-pyrazol-4-yl)isoxazole-4-carboxylate] | 1 to 10 |
| CNC(=O)c1c(-c2c(F)cccc2Cl)noc1-c1cnn(-c2ccccn2)c1C(F)(F)F [Example B-93, 3-(2-chloro-6-fluorophenyl)-N-methyl-5-(1-(pyridin-2-yl)-5-(trifluoromethyl)-1H-pyrazol-4-yl)isoxazole-4-carboxamide] | 1 to 10 |
| O=C(O)c1c(-c2ccccc2Cl)noc1-c1cnn(-c2cccc(Cl)c2)c1C(F)(F)F [Example B-42, 3-(2-chlorophenyl)-5-(1-(3-chlorophenyl)-5-(trifluoromethyl)-1H-pyrazol-4-yl)-isoxazole-4-carboxylic acid] | 1 to 10 |
| COC(=O)c1c(-c2c(Cl)cccc2Cl)noc1-c1cnn(-c2cccc(Cl)c2)c1C(F)(F)F [Example B-75, methyl 5-(1-(3-chlorophenyl)-5-(trifluoromethyl)-1H-pyrazol-4-yl)-3-(2,6-dichlorophenyl)isoxazole-4-carboxylate] | < 0.01 |
| COC(=O)c1c(-c2c(F)cccc2Cl)noc1-c1cnn(-c2ccc(OC(F)(F)F)cc2)c1C(F)(F)F [Example 33, methyl 3-(2-chloro-6-fluorophenyl)-5-(1-(4-(trifluoromethoxy)phenyl)-5-(trifluoromethyl)-1H-pyrazol-4-yl)isoxazole-4-carboxylate] | 1 to 10 |
| COC(=O)c1c(-c2c(Cl)cccc2Cl)noc1-c1cnn(-c2cccc(F)c2)c1C(F)(F)F [Example 109, methyl 3-(2,6-dichlorophenyl)-5-(1-(3-fluorophenyl)-5-(trifluoromethyl)-1H-pyrazol-4-yl)isoxazole-4-carboxylate] | < 0.01 |
| COC(=O)c1c(-c2ccccc2Cl)noc1-c1cnn(-c2cccc(F)c2)c1C(F)(F)F [Example 95, methyl 3-(2-chlorophenyl)-5-(1-(3-fluorophenyl)-5-(trifluoromethyl)-1H-pyrazol-4-yl)isoxazole-4-carboxylate] | < 0.01 |
| COC(=O)c1c(-c2ccccc2)noc1-c1cnn(-c2cccc(Cl)c2)c1C(F)(F)F [Example B-30, methyl 5-(1-(3-chlorophenyl)-5-(trifluoromethyl)-1H-pyrazol-4-yl)-3-phenylisoxazole-4-carboxylate] | 0.1 to 1 |
| CCOC(=O)c1c(-c2ccc(Cl)cc2)noc1-c1cnn(-c2cccc(Cl)c2)c1C(F)(F)F [Example 77, ethyl 3-(4-chlorophenyl)-5-(1-(3-chlorophenyl)-5-(trifluoromethyl)-1H-pyrazol-4-yl)isoxazole-4-carboxylate] | 1 to 10 |
| CCOC(=O)c1c(-c2c(F)cccc2Cl)noc1-c1cnn(-c2ccncc2)c1C(F)(F)F [Example B-38, ethyl 3-(2-chloro-6-fluorophenyl)-5-(1-(pyridin-4-yl)-5-(trifluoromethyl)-1H-pyrazol-4-yl)-isoxazole-4-carboxylate] | < 0.01 |
| COC(=O)c1c(-c2c(F)cccc2Cl)noc1-c1cnn(-c2cccc(F)c2)c1C(F)(F)C(F)F [Example 64, methyl 3-(2-chloro-6-fluorophenyl)-5-(1-(3-fluorophenyl)-5-(1,1,2,2-tetrafluoroethyl)-1H-pyrazol-4-yl)isoxazole-4-carboxylate] | 1 to 10 |
| CC(C)OC(=O)c1c(-c2c(F)cccc2Cl)noc1-c1cnn(-c2cccnc2)c1C(F)(F)F [Example B-61, isopropyl 3-(2-chloro-6-fluorophenyl)-5-(1-(pyridin-3-yl)-5-(trifluoromethyl)-1H-pyrazol-4-yl)isoxazole-4-carboxylate] | 0.01 to 0.1 |
| Fc1cccc(Cl)c1-c1noc(-c2cnn(-c3ccccc3)c2C(F)(F)F)c1Br [Example 145, 4-bromo-3-(2-chloro-6-fluorophenyl)-5-(1-phenyl-5-(trifluoromethyl)-1H-pyrazol-4-yl)isoxazole] | 0.01 to 0.1 |
| COC(=O)c1c(-c2ccc(Cl)cc2Cl)noc1-c1cnn(-c2cccc(Cl)c2)c1C(F)(F)F [Example B-76, methyl 5-(1-(3-chlorophenyl)-5-(trifluoromethyl)-1H-pyrazol-4-yl)-3-(2,4-dichlorophenyl)isoxazole-4-carboxylate] | 0.1 to 1 |
| CCOC(=O)c1c(-c2c(F)cccc2Cl)noc1-c1cnn(CC2CCOCC2)c1C(F)(F)F [Example B-81, ethyl 3-(2-chloro-6-fluorophenyl)-5-(1-((tetrahydro-2H-pyran-4-yl)methyl)-5-(trifluoromethyl)-1H-pyrazol-4-yl)isoxazole-4-carboxylate] | 0.1 to 1 |
| Fc1ccc(-n2ncc(-c3onc(-c4c(F)cccc4Cl)c3Br)c2C(F)(F)F)c(F)c1 [Example B-24, 4-bromo-3-(2-chloro-6-fluorophenyl)-5-(1-(2,4-difluorophenyl)-5-(trifluoromethyl)-1H-pyrazol-4-yl)isoxazole] | 1 to 10 |
